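Cells were grown in 96-well plates and exposed to each compound for 48 hours at five concentrations; endpoints were interpolated linearly between bracketing concentrations, or set to the highest concentration if not reached. Here, GI50 denotes the concentration required for 50% inhibition of growth.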 Active and inactive are the calls of the source. No stated cut-off is given here; in the data, active = GI50 up to about 1.1 µM and inactive = higher.
How the values were obtained:
Assay in all cases: inhibition of tumour cell growth, NCI panel, 48 h
[1] = system: OVCAR-3
[2] = system: KM12
[3] = system: UACC-62
[4] = system: CAKI-1
[5] = system: SR
[6] = system: OVCAR-5
[7] = system: 786-0
[8] = system: IGROV-1
[9] = system: SF-295
[10] = system: UO-31
[11] = system: HT-29
[12] = system: LOX IMVI
[13] = system: SNB-19
[14] = system: COLO 205
[15] = system: HCT-116
[16] = system: A549
[17] = system: SF-539
[18] = system: M14
[19] = system: Malme-3M
[20] = system: HL-60

Measured: GI50

CC(=O)OC1COC(N2CCc3ccccc32)C(OC(C)=O)C1OC(C)=O (stereo unspecified)
inactive: [1] > 100 µM | [2] > 100 µM | [3] > 94.6 µM | [4] > 100 µM | [5] > 100 µM | [6] > 100 µM | [7] > 100 µM | [8] > 100 µM | [9] > 100 µM | [10] > 58.7 µM | [11] > 100 µM | [12] > 100 µM | [13] > 100 µM | [14] > 100 µM | [15] > 100 µM | [16] > 100 µM | [17] > 100 µM | [18] > 100 µM | [19] > 100 µM

O=C(c1ccccc1)c1cccc(C(=O)c2ccccc2)c1
inactive: [1] > 100 µM | [2] 44.1 µM | [3] > 100 µM | [4] > 100 µM | [5] 97.9 µM | [7] > 100 µM | [8] > 100 µM | [9] > 100 µM | [10] 37.2 µM | [11] > 100 µM | [12] 33 µM | [13] > 100 µM | [14] > 100 µM | [15] > 100 µM | [16] > 100 µM | [17] > 100 µM | [18] > 100 µM | [19] 78.2 µM

O=C1c2ccccc2-n2nnnc2C2CSCN12 (stereo unspecified)
inactive: [1] > 100 µM | [2] > 100 µM | [3] > 100 µM | [4] > 100 µM | [5] > 100 µM | [6] > 100 µM | [7] > 100 µM | [8] > 100 µM | [9] > 100 µM | [10] > 100 µM | [11] > 100 µM | [12] > 100 µM | [13] > 100 µM | [14] > 100 µM | [15] > 100 µM | [16] > 100 µM | [18] > 100 µM | [19] > 100 µM

N#C/C(=C1/c2cc([N+](=O)[O-])ccc2-c2c1cc([N+](=O)[O-])cc2[N+](=O)[O-])N1CCCCC1
inactive: [1] > 100 µM | [2] > 100 µM | [3] 68.4 µM | [4] > 100 µM | [5] 1.34 µM | [6] > 100 µM | [7] 39.2 µM | [8] 49.5 µM | [9] > 100 µM | [10] > 100 µM | [11] > 100 µM | [13] > 100 µM | [14] > 100 µM | [15] 27.3 µM | [16] > 100 µM | [18] 86.9 µM | [19] > 100 µM

COc1ccc(C(SCCO)(c2ccccc2)c2ccc(OC)cc2)cc1
inactive: [1] 16.3 µM | [2] 5.38 µM | [3] 11.5 µM | [4] 21 µM | [6] 15.2 µM | [20] 21.3 µM | [7] 14.6 µM | [8] 16.8 µM | [9] 4.36 µM | [10] 17.6 µM | [11] 13.9 µM | [12] 16.5 µM | [13] 8.26 µM | [14] 17.9 µM | [15] 8.41 µM | [16] 11 µM | [17] 14.7 µM | [18] 9.31 µM | [19] 16.4 µM

O=C1CN=C(C[N+](=O)[O-])c2ccccc21
inactive: [1] > 100 µM | [2] > 100 µM | [4] > 100 µM | [5] > 100 µM | [6] > 100 µM | [20] > 100 µM | [7] > 100 µM | [8] > 100 µM | [9] > 100 µM | [10] > 100 µM | [11] > 100 µM | [13] > 100 µM | [14] > 100 µM | [15] > 100 µM | [16] > 100 µM | [17] > 100 µM | [18] > 100 µM | [19] > 100 µM

NC(=S)NNC(=O)CCC(=O)Nc1ccc(Cl)cc1Cl
inactive: [1] > 100 µM | [2] > 100 µM | [3] 29.9 µM | [4] > 100 µM | [6] > 100 µM | [20] > 100 µM | [7] > 100 µM | [8] > 100 µM | [9] > 100 µM | [10] > 100 µM | [11] > 100 µM | [12] 66.8 µM | [13] > 100 µM | [14] > 100 µM | [15] > 100 µM | [16] > 100 µM | [17] > 100 µM | [18] 37.1 µM | [19] > 100 µM

Sc1ncnc2c1ncn2Cc1ccco1
inactive: [1] > 100 µM | [2] > 100 µM | [3] > 100 µM | [4] > 100 µM | [5] > 100 µM | [6] > 100 µM | [7] > 100 µM | [8] > 100 µM | [9] > 100 µM | [10] > 100 µM | [11] > 100 µM | [12] > 100 µM | [13] > 100 µM | [14] > 100 µM | [15] > 100 µM | [16] > 100 µM | [17] > 100 µM | [18] > 100 µM | [19] > 100 µM

O=C(O)c1nc(-c2ccc(Cl)c(Cl)c2)nc2ccc(Cl)cc12
inactive: [1] 51.9 µM | [2] > 100 µM | [3] > 100 µM | [4] 73.1 µM | [5] 64.4 µM | [6] > 100 µM | [20] 16.6 µM | [7] 48.4 µM | [8] 51.5 µM | [9] 45.9 µM | [10] > 100 µM | [11] > 100 µM | [13] 51.9 µM | [14] > 100 µM | [15] 66.7 µM | [16] > 100 µM | [17] > 100 µM | [19] > 100 µM

CN(C)c1ccc(/C=C2\Oc3ccccc3C2=O)cc1
inactive: [1] > 100 µM | [2] > 100 µM | [3] > 100 µM | [4] > 100 µM | [5] 31 µM | [20] > 100 µM | [7] > 100 µM | [8] > 100 µM | [9] > 100 µM | [10] 52.2 µM | [11] > 100 µM | [13] > 100 µM | [14] > 100 µM | [15] > 100 µM | [16] > 100 µM | [17] > 100 µM | [18] > 100 µM

CSc1ccc2c(cc1=O)[C@@H](NC(=O)c1cccc([N+](=O)[O-])c1)CCc1cc(O)c(O)c(O)c1-2
inactive: [1] 35.5 µM | [2] 31.2 µM | [3] 18.3 µM | [4] 67.3 µM | [6] > 100 µM | [20] 26.1 µM | [7] 61.2 µM | [8] 46.2 µM | [9] 42.4 µM | [10] > 100 µM | [11] 37.8 µM | [12] 17.5 µM | [13] > 100 µM | [14] 38.9 µM | [15] 20 µM | [16] 53.6 µM | [17] 26.2 µM | [18] 25.3 µM | [19] 81.3 µM
